From US20220184222A1, “BICYCLE TOXIN CONJUGATES AND USES THEREOF” (BicycleTx Limited, priority 2019, published 2022)
Starred links: 1 amine or outer side, 2 acyl side, 3 side chain; linkers in the order of their positions; H or OH if unused. Non-standard residues stand in square brackets, D forms with d. Residues, ends and D or L forms follow the SMILES beside them. *: point of attachment. Dolaproine = CO[C@@H]([C@@H]1CCCN1)[C@@H](C)C(=O)O; Dil = CC[C@H](C)[C@H](NC)[C@@H](CC(=O)O)OC; PABC = O=C(OCc1ccc(N[*:1])cc1)[*:2]; X1 = O=C(CCCC(=O)*)ON1C(=O)CCC1=O; X2 = C[C@@H](N*)[C@@H](O)c1ccccc1; Cit = NC(=O)NCCC[C@H](N)C(=O)O; NMeV = CN[C@H](C(=O)O)C(C)C

How the values were obtained:
pHH3 = assay: In vivo PD in PC-3 CDX model: tumor pHH3 IHC, mitotic arrest (Example 4); set-up: species or system Mus Musculus; details: single dose
Experimental: The objective of the research is to evaluate the in vivo PK/PD of test agents in treatment of PC-3 CDX model in Balb/c nude mice.
Each mouse was inoculated subcutaneously at the right flank with PC-3 tumor cells (10×10^6) in 0.2 mL of PBS for tumor development. The animals were randomized and dosed when the average tumor volume reached approximately 440 mm^3 for the PK/PD study. The test article administration and time points in each group were shown in the experimental design table.
Mice were randomly grouped based on tumor volume and dosed as experimental design. Plasma, serum, muscle and tumors were collected at 1 h, 2 h, 8 h, 24 h, 48 h, 72 h and 96 h post dosing.
3 tumors of a mouse cohort were embed into 1 FFPE block.
• 5 μm FFPE tissue section loaded on Ventana XT; • Deparaffinization was selected; • EDTA based CC1 Standard heat antigen retravel was selected; • Option 1 (Protein blocker, Invitrogen Cat #1890588) was selected and incubate for 32 Min; • CC3 antibody (CST Cat #9661) 1:200 dilution was applied and incubated for 60 min at 37° C. • Apply One Drop of [OMap anti-Rb HRP] […]

Panc163 = assay: PDAC PDX Panc163 xenograft efficacy (Example 5); type: in vivo, NSG mice; details: 3 mg/kg intravenously weekly, 4-week treatment period
Experimental: BT5528 and Vehicle were prepared as described in the examples above, and tested in treatment of Pancreatic Ductal Adenocarcinoma (PDAC) in PDX models. PDX models effectively capture patient responses to oncology therapy in a heterogeneous cohort of patients with solid tumors with 80-100% correlation between the PDX and patient response (Izumchenko et al. 2017)
Pancreatic ductal adenocarcinoma patient derived xenograft tumors (PDAC PDX; Panc033 and Panc163) were implanted subcutaneously from source tumors into the flank of NSG mice. Tumor bearing animals were randomized to receive intravenously a weekly dosing of vehicle or 3 mg/kg BT5528. Tumor sizes were monitored by caliper measurements.

CTG-0178 = assay: Champions TumorGraft NSCLC PDX efficacy, model CTG-0178; type: in vivo, Mus musculus
Experimental: Mice were implanted subcutaneously into the left flank with tumor fragments from one of the various models. After tumors grew to an average of 150-300 mm^3, mice were treated by IV administration Q7Dx4 (n=2) with vehicle or 3 mg/kg of BT5528. Effects on tumor growth were evaluated by measuring percent tumor growth inhibition (% TGI), and the number of complete responders (CR), partial responders (PR), and tumor-free survivors (TFS). Tolerability was assessed by body weight loss, lethality, and clinical signs of adverse treatment-related side effects. Tumor volumes and body weights were measured twice a week.
Dosing solutions of BT5528 […] were pre-formulated. These dosing solutions were stored at −80° C. in the dark. On each day of dosing, a frozen aliquot of each test agent was thawed, stored at 2-8° C. and used for dosing.
The animals used in this study are described below: • Species: Mus musculus • Strain: Athymic Nude-Foxn1^nu (immune-compromised) • Source: Envigo (Indianapolis, Ind., USA) • Number of animals per group: 2 • Age and sex: At least 6-8 weeks of age at start of dosing, female • Weight: At least 18 grams at start of dosing • Acclimation period: 3 days
Stock mice were implanted with tumor cells from Champions TumorGraft® models CTG-0160, CTG-0170, CTG-0178, CTG-0192, CTG-0363, CTG-0808, CTG-0838, CTG-0848, CTG-1212, CTG-1502, CTG-1535, CTG-2011, CTG-2393, CTG-2539 or CTG-2540. After the tumors reached 1000-1500 mm^3, they were harvested and the tumor fragments (approximately 5×5×5 mm^3) were implanted SC in the left flank of the female study mice. Each animal was implanted with a specific passage lot and documented. Tumor growth was monitored twice a week using digital calipers and the tumor volume (TV) was calculated using the formula (0.52×[length×width^2]). When the TV reached an average volume of 150-300 mm^3, animals were matched by tumor size and assigned into Vehicle Control and treatment groups (n=2/group) and dosing was initiated on Day 0. After the initiation of dosing on Day 0, animals were weighed twice per week using a digital scale and TV was measured twice per week and also on the final day of study. The study was completed when the mean tumor volume of Vehicle Control reached 1500 mm^3 or up to Day 60, whichever occurred first.
Beginning on Day 0, animals were observed daily and weighed twice weekly using a digital scale; data including individual and mean gram weights, mean percent weight change versus Day 0 (% vD0) were recorded for each group and % vD0 plotted at study completion. […] Treatment resulting in a mean % vD0>20% and/or >10% mortality was considered above the maximum tolerated dose. Maximum mean % vD0 (weight nadir) for each treatment group was reported at study completion.
Inhibition of tumor growth was determined by calculating the percent TGI (100%×[1−(final MTV−initial MTV of a treated group)/(final MTV−initial MTV of the control group)]). Treatment started on Day 0.
Additional endpoints used to evaluate efficacy were: the number of complete responders (CR), partial responders (PR), and tumor-free survivors (TFS). PRs were considered exclusive of CRs, as were TFS.
Statistical analyses of anti-tumor efficacy were performed using one-way ANOVA followed by Dunnett's multiple comparisons test (GraphPad Prism version 8.2.0). Significant p-values=<0.05.
Animals were dosed according to the schedule on Table 7-1. The study was terminated on Day 28.

[1] = CTG-0178, 3 mg/kg IV Q7Dx4, Day 0-28

## CC[C@H](C)[C@@H]([C@@H](CC(=O)N1CCC[C@H]1[C@H](OC)[C@@H](C)C(=O)N[C@H](C)[C@@H](O)c1ccccc1)OC)N(C)C(=O)[C@@H](NC(=O)[C@H](C(C)C)N(C)C(=O)OCc1ccc(NC(=O)[C@H](CCCNC(N)=O)NC(=O)[C@@H](NC(=O)CCCC(=O)ON2C(=O)CCC2=O)C(C)C)cc1)C(C)C [BT5528] (X1-V[Cit][PABC][NMeV]V[Dil][Dolaproine]-X2)
pHH3
  mitotic arrest in tumor measurable by pHH3 IHC, time after dose: ≤ 24 hours
  mitotic arrest of tumor cells, time post-dose: 24 to 48 h
Panc163
  anti-tumor activity (tumor size by caliper): significant anti-tumor activity from reduced tumor growth rate to decreasing tumor volumes
CTG-0178; 3 mg/kg IV Q7Dx4
  mean body weight loss: minor mean body weight losses on Day 18
CTG-0178; 3 mg/kg IV Q7Dx4, Day 28
  MTV (mean tumor volume): 1145±271 mm^3
  TGI: 16%
CTG-0178; [1]
  # CR (complete responders): 0/0/0
  # PR (partial responders): 0/0/0
  # TFS (tumor-free survivors): 0/0/0
CTG-0178; CTG-0178, 3 mg/kg IV Q7Dx4, Day 28
  % TGI: 16%
CTG-0178; CTG-0178, BT5528 3 mg/kg IV Q7Dx4, Day 28, n=2
  Day 28 Tumor Volume Mean TV ± SEM: 1145 ± 271 mm^3
